Test results from the supplement of paper PMC10307832.

Compound: CCOC(=O)CCNc1cc(N2CCc3ccccc3CC2)nc(-c2ccccn2)n1 [GSK-J4] + CS(=O)(=O)CCNCc1ccc(-c2ccc3ncnc(Nc4ccc(OCc5cccc(F)c5)c(Cl)c4)c3c2)o1 [Lapatinib] (partner 2 µM)
Assay: relative viability (nuclei count vs DMSO), 5 days (fraction); higher = more cells survive
Details: first compound 50 µM
In short: (§1)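 Lung cancer cell lines were pin-tool dosed in 1536-well plates on the day after seeding, with either a lone drug or a fixed anchor-drug dose plus five library-drug doses (not always all listed) in √10 steps. Nuclei were counted on 4× images after 5 days. Relative viability is the ratio of treated-well to vehicle-well nuclei counts, with each value a median of duplicate plates.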

Cell Line | relative viability
IA-LM | 0.0952
NCI-H1703 | 0.695
NCI-H1650 | 0.327
NCI-H1793 | 0.234
NCI-H2170 | 0.22

Compound: CCOC(=O)CCNc1cc(N2CCc3ccccc3CC2)nc(-c2ccccn2)n1 [GSK-J4] + C[C@]1(O)C[C@@H](c2nc(-c3ccc4ccc(-c5ccccc5)nc4c3)c3c(N)nccn32)C1 [Linsitinib] (partner 1 µM)
Assay: as above
Details: first compound 0.5 µM
In short: as §1

Cell Line | relative viability
PC-14 | 0.909
NCI-H1666 | 0.873
EKVX | 0.928
NCI-H1755 | 0.958
NCI-H2023 | 0.658
HCC-78 | 0.44
SK-LU-1 | 1.08
PC-3 [JPC-3] | 0.883
LOU-NH91 | 1
NCI-H647 | 0.964
NCI-H23 | 0.557
EPLC-272H | 1.16
NCI-H2126 | 0.735
HCC-44 | 0.704
NCI-H1734 | 0.884
NCI-H650 | 0.733

Cell Line | relative viability
LK-2 | 0.69
NCI-H2228 | 0.483
NCI-H1944 | 1.2
HARA | 0.891
Calu-6 | 0.868
COR-L23 | 0.909
LCLC-103H | 0.914
LXF-289 | 0.973
EBC-1 | 0.937
A549 | 0.559
NCI-H1299 | 0.979
NCI-H1395 | 1.06
IA-LM | 0.556
NCI-H1703 | 0.636
NCI-H441 | 0.664
NCI-H1793 | 0.973

Same assay, conditions: first compound 1.581 µM

Cell Line | relative viability
PC-14 | 0.918
EKVX | 0.832
NCI-H1755 | 0.561
NCI-H2023 | 0.675
HCC-78 | 0.499
SK-LU-1 | 1.18
PC-3 [JPC-3] | 0.928
LOU-NH91 | 0.928
NCI-H647 | 0.993
NCI-H2126 | 0.705
HCC-44 | 0.625
NCI-H1734 | 0.72
NCI-H650 | 0.672
LK-2 | 0.449
NCI-H2228 | 0.721
NCI-H1944 | 0.977
HARA | 0.608
Calu-6 | 0.924
COR-L23 | 0.933
LCLC-103H | 0.978
LXF-289 | 0.912
EBC-1 | 0.758
NCI-H1299 | 0.881
NCI-H1395 | 1.22
IA-LM | 0.288
NCI-H1703 | 0.276
NCI-H441 | 0.325
NCI-H1793 | 0.71

Same assay, conditions: first compound 5 µM

Cell Line | relative viability
PC-14 | 0.86
NCI-H1666 | 0.888
EKVX | 1.16
NCI-H1755 | 0.962
NCI-H2023 | 0.815
HCC-78 | 0.701
SK-LU-1 | 0.716
PC-3 [JPC-3] | 0.961
LOU-NH91 | 0.804
NCI-H647 | 1.03
NCI-H23 | 0.694
EPLC-272H | 1.31
NCI-H2126 | 0.732
HCC-44 | 0.709
NCI-H1734 | 0.818
NCI-H650 | 0.537
LK-2 | 0.774
NCI-H2228 | 0.748
NCI-H1944 | 1.22
Calu-6 | 0.719
LCLC-103H | 1.12
LXF-289 | 0.956
EBC-1 | 0.789
A549 | 0.733
NCI-H1299 | 0.813
NCI-H1395 | 0.877
IA-LM | 0.634
NCI-H1703 | 0.336
NCI-H441 | 0.602
NCI-H1793 | 0.94

Same assay, conditions: first compound 15.81 µM

Cell Line | relative viability
PC-14 | 0.915
NCI-H1666 | 0.779
EKVX | 0.836
NCI-H1755 | 0.858
NCI-H2023 | 0.582
SK-LU-1 | 0.911
PC-3 [JPC-3] | 0.908
LOU-NH91 | 0.817
NCI-H647 | 1.2
NCI-H23 | 0.54
EPLC-272H | 1.02
NCI-H2126 | 0.677
HCC-44 | 0.735
NCI-H1734 | 0.757
NCI-H650 | 0.723
LK-2 | 0.537

Cell Line | relative viability
NCI-H2228 | 0.746
NCI-H1944 | 1.22
HARA | 0.797
Calu-6 | 0.927
COR-L23 | 0.868
LCLC-103H | 1.06
LXF-289 | 0.915
EBC-1 | 0.795
A549 | 0.442
NCI-H1299 | 0.962
NCI-H1395 | 0.813
IA-LM | 0.463
NCI-H1703 | 0.364
NCI-H441 | 0.532
NCI-H1793 | 0.594

Same assay, conditions: first compound 50 µM

Cell Line | relative viability
PC-14 | 1.05
NCI-H1666 | 0.764
EKVX | 0.902
NCI-H1755 | 0.959
NCI-H2023 | 0.674
HCC-78 | 0.484
SK-LU-1 | 0.777
PC-3 [JPC-3] | 0.945
LOU-NH91 | 1
NCI-H647 | 0.79
NCI-H23 | 0.594
EPLC-272H | 1.11
NCI-H2126 | 0.725
HCC-44 | 0.646
NCI-H1734 | 0.816
NCI-H650 | 0.592

Cell Line | relative viability
LK-2 | 0.602
NCI-H2228 | 1.04
NCI-H1944 | 1.2
HARA | 0.699
Calu-6 | 0.869
COR-L23 | 0.807
LCLC-103H | 1.04
LXF-289 | 0.893
EBC-1 | 0.709
A549 | 0.578
NCI-H1299 | 0.988
NCI-H1395 | 0.745
IA-LM | 0.201
NCI-H1703 | 0.761
NCI-H441 | 0.511
NCI-H1793 | 0.493
